Laboratory results: patent US5449672A, “Alkylaminoalkylpyrrolidinylthiocarbapenem derivatives” (Banyu Pharmaceutical Co., Ltd., priority 1991, dated 1995)
Values after ≈ are worked out from the molar mass of the structure shown. Where two headings read alike, the source gives them in different places.

Assays:
P. aeruginosa MB5178 = experiment: Minimum inhibitory concentration (MIC), agar plate dilution method, P. aeruginosa MB5178; format: cell-based; settings: Pseudomonas aeruginosa, read-out: Minimum Inhibitory Concentration (MIC)
Protocol: (§1) One platinum loopful of each test microorganism incubated overnight in Mueller Hinton broth, was inoculated to Mueller Hinton agar (inoculum size: 10^6 CFU/ml). Such culture media contained antibacterial agents in various concentrations. After incubation at 37° C. for 16 hours, the minimum inhibitory concentrations (MIC: μg/ml) were measured. Further, the DHP-I susceptibility was quantitatively analyzed by the method by Kropp et al. (Antimicrob. Agents Chemother., vol. 22, p. 62-70 (1982)), whereby the smaller the numerical value representing the ratio to imipenem (=1.0), the higher the stability.
(§2) The minimum inhibitory concentrations and the DHP-I susceptibility of the compounds of the present invention were compared with imipenem and the compound of REFERENCE EXAMPLE 4.

P. aeruginosa MB5002 = experiment: Minimum inhibitory concentration (MIC), agar plate dilution method, P. aeruginosa MB5002; format: cell-based; settings: Pseudomonas aeruginosa, read-out: Minimum Inhibitory Concentration (MIC)
Protocol: as §1, §2

[1] = test system: DHP-I (renal dehydropeptidase I); experiment: DHP-I susceptibility, method by Kropp et al.; format: in vitro ADME; settings: ratio to imipenem (=1.0); the smaller the value, the higher the stability
Protocol: as §1, §2

DHP-I = settings: in vivo; human kidney for imipenem; cited from earlier work
[2] = test system: gram positive bacteria and gram negative bacteria; settings: literature, in words; cited from earlier work
β-lactamase = settings: literature, in words; cited from earlier work
[3] = cited from earlier work
[4] = test system: Methicillin resistant Staphylococcus aureus and resistant Pseudomonas aeruginosa; settings: prior-art compounds; highly methicillin resistant S. aureus and resistant P. aeruginosa; cited from earlier work
[5] = due to the decomposition products; cited from earlier work
[6] = in words; cited from earlier work
[7] = P. aeruginosa MB5178, Mueller Hinton agar, inoculum 10^6 CFU/ml, 37° C., 16 hours
[8] = P. aeruginosa MB5002, Mueller Hinton agar, inoculum 10^6 CFU/ml, 37° C., 16 hours

Compound | MIC (P. aeruginosa MB5178; [7]) | MIC (P. aeruginosa MB5002; [8]) | DHP-I susceptibility [1] | decomposition by renal dehydropeptidase I (DHP-I) (DHP-I) | antibacterial activities [2] | further results
CNCC[C@@H]1C[C@H](SC2=C(C(=O)O)N3C(=O)[C@H]([C@@H](C)O)[C@H]3[C@H]2C)CN1 [Example 1, (1R,5S,6S)-6-[(R)-1-Hydroxyethyl]-1-methyl-2-[(2R,4S)-2-[2-(methylamino)ethyl]pyrrolidin-4-ylthio]-1-carbapen-2-em-3-carboxylic Acid] | 3.13 µg/mL (≈ 8.47 µM) | 0.78 µg/mL (≈ 2.11 µM) | < 0.05 | – | – | –
C[C@@H](O)[C@H]1C(=O)N2C(C(=O)O)=C(SCCN=CN)C[C@H]12 [Imipenem, (5R,6S,8R)-3-[[2-(formimidoylamino)ethyl]thio]-6-(1-hydroxyethyl)-7-oxo-1-azabicyclo[3.2.0]hept-2-en-2-carboxylic acid monohydrate] | – | – | 1.0 | likely to be decomposed by DHP-I in the human kidney | antibacterial activities of an equal or higher level than thienamycin against various types of bacteria | β-lactamase resistance (β-lactamase): has β-lactamase resistance; stability in the solid form or in an aqueous solution ([3]; relative to thienamycin): remarkably improved over thienamycin; MIC (P. aeruginosa MB5178; MB5178, 16 h): 25 µg/mL; MIC (P. aeruginosa MB5002; MB5002, 16 h): 1.56 µg/mL; treating effects / antibacterial activities against resistant bacteria [4]: does not show adequate treating effects against these resistant bacteria; toxicity against the kidney [5]: presents toxicity against the kidney due to the decomposition products
C[C@@H](O)[C@H]1C(=O)N2C(C(=O)O)=C(SCCN)C[C@H]12 [Thienamycin] | – | – | – | likely to be decomposed by a certain enzyme in vivo such as renal dehydropeptidase I | strong antibacterial activities over a wide range against gram positive bacteria and gram negative bacteria | recovery rate in the urine [6]: low; chemical stability ([3]; literature, in words): chemically unstable

Now from value to compound, other results behind:

MIC (P. aeruginosa MB5178; [7]) | MIC (P. aeruginosa MB5002; [8]) | DHP-I susceptibility [1] | Compound | decomposition by renal dehydropeptidase I (DHP-I) (DHP-I) | antibacterial activities [2] | further results
3.13 µg/mL | 0.78 µg/mL | 0.07 | CNCCC[C@@H]1C[C@H](SC2=C(C(=O)O)N3C(=O)[C@H]([C@@H](C)O)[C@H]3[C@H]2C)CN1.Cl [Example 3, (1R,5S,6S)-6-[(R)-1-Hydroxyethyl]-1-methyl-2-[(2R,4S)-2-[3-(methylamino)propyl]pyrrolidin-4-ylthio]-1-carbapen-2-em-3-carboxylic acid Monohydrochloride] | – | – | –
12.5 µg/mL (≈ 32.6 µM) | 6.25 µg/mL (≈ 16.3 µM) | 0.7 | CC(=O)NC[C@@H]1C[C@H](SC2=C(C(=O)O)N3C(=O)[C@H]([C@@H](C)O)[C@H]3[C@H]2C)CN1 [compound 1, (1R,5S,6S)-2-[(2S,4S)-2-(Acetylaminomethyl)pyrrolidin-4-ylthio]-6-[(R)-1-hydroxyethyl]-1-methyl-1-carbapen-2-em-3-carboxylic Acid] | – | – | –
